Experimental data from publication PMC4577076, “Detoxification of Indole by an Indole-Induced Flavoprotein Oxygenase from Acinetobacter baumannii” (PLoS ONE, 2015).

Biological target: T1, IifC (Acinetobacter baumannii, UniProt A0ABX6CFV1)
T1 construct: gene styA; full length, 412 aa; pQE-80L (BamHI/PstI); expressed in E. coli CY15000 (tnaA mutant); purified by Q-Sepharose anion exchange
T1 sequence (A0ABX6CFV1 1-412): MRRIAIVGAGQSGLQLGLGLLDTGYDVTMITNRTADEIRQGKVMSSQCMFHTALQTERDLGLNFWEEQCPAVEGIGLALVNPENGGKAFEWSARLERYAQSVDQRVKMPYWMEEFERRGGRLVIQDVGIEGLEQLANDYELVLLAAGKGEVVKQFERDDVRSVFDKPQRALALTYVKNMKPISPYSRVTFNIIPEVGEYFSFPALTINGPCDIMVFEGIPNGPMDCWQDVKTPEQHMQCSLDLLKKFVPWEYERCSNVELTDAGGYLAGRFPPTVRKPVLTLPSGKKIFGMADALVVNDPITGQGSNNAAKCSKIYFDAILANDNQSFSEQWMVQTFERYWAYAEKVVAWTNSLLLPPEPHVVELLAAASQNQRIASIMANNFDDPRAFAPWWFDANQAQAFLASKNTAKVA
Experiment: FAD content of purified protein
Type: binding
Conditions: as purified from E. coli; non-covalently bound

Cc1cc2nc3c(=O)[nH]c(=O)nc-3n(C[C@H](O)[C@H](O)[C@H](O)COP(=O)(O)OP(=O)(O)OC[C@H]3O[C@@H](n4cnc5c(N)ncnc54)[C@H](O)[C@@H]3O)c2cc1C [flavin adenine dinucleotide]
mol FAD per mol protein: 0.48 mol/mol
